Earlier results as cited in patent US20240335458A1, “OPHTHALMIC COMPOSITION FOR THE TREATMENT OF VISUAL DISORDERS” (FOODVICA, S.A. DE C.V., priority 2021, published 2024).

Columns and labels:
[1] = system: protein aggregates obtained from surgically removed cataracts; details: 2 mg/ml protein aggregates, 10 µM and 200 μM, 6-day treatment at room temperature
[2] = system: sodium selenite-induced cataract
[3] = system: natural cataract lens of rabbits; details: 25 mM lanosterol, 6 days
rat lens opacities = details: 15 mM lanosterol in liposomes
cataracts = details: 14 intravitreal injections of lanosterol nanoparticles (final dose 1.4 mg) plus 50 μL drops 3 times a day for 6 weeks, 7 dogs
[4] = system: age-related cataract human lens nuclei; details: 25 mM lanosterol solution, 6 days

Row | Structure (SMILES) | Macroscopic clearing of protein aggregate solutions [1] | Levels of lipid peroxidation, enzymatic and non-enzymatic antioxidants ([2]; curcumin 75 mg/kg body weight single dose, sodium selenite 15 μM/kg body weight) | aA- and aB-crystallin and Hsp 70 expression ([2]; selenite-induced cataractogenesis) | Lens clarity before and after treatment [3] | Reversal of lens opacities (rat lens opacities) | Reduction of cataract stage (cataracts) | Reversal of opacification of cataract nuclei [4]
1 | C[C@H](CCCC(C)(C)O)[C@H]1CC[C@H]2[C@@H]3CC=C4C[C@@H](O)CC[C@]4(C)[C@H]3CC[C@]12C [25-hydroxycholesterol] | dramatically cleared the originally dark solutions in a dose-dependent way | – | – | – | – | – | –
2 | COc1cc(/C=C/C(=O)CC(=O)/C=C/c2ccc(O)c(OC)c2)ccc1O [curcumin] | – | significant reduction | suppressed aA- and aB-crystallin expression induced by selenite and Hsp 70 | – | – | – | –
3 | CC(C)=CCC[C@@H](C)[C@H]1CC[C@@]2(C)C3=C(CC[C@]12C)[C@@]1(C)CC[C@H](O)C(C)(C)[C@@H]1CC3 [lanosterol] | dramatically cleared the originally dark solutions in a dose-dependent way | – | – | solid trend towards reduction of cataract severity | failed to reverse the opacities or prevent progression | reduce up to two degrees the stage of cataracts | did not reverse the opacification
